Data taken from US20170275371A1, “Methods Of Treatment” (GlaxoSmithKline Intellectual Property Development Limited, priority 2015, published 2017).
“And” between values parts separate entries of the source, which are not always exact repeats. Equal values may be shown once. “Also recorded” adds a separate entry of the source.

Key:
[1] = test system: CT-26 colon carcinoma tumors; assay: CT-26 syngeneic mouse model of colon cancer, i.p. dosing (Examples 1-4); assay type: in vivo; settings: for tumor growth inhibition over time: TLR4 agonist 4, 20, 100 ug per mouse i.p. biweekly, vs vehicle (2% glycerol); for survivability: TLR4 agonist i.p. biweekly, vs vehicle
[2] = test system: TNF alpha and IL-12p70; assay: Multiplex cytokine analysis of plasma from CT-26 mice (Study 5); assay type: in vivo, mouse; settings: CRX-601 10 ug, OX-86, or both
Description: Tumors, blood and tissues were harvested from CT-26 mice on day 0, day 1 and day 8 after first CRX-601 dosing. Mouse white blood cells and dissociated tumor single cells were stained freshly with surface or intracellular staining antibodies for multicolor flow cytometry analysis for immunephenotyping. Multiplex cytokine analysis was performed using mouse plasma samples from the same study.
Results are the mean of five animals per cohort.

[3] = test system: CT-26 tumor cells; assay: CT-26 tumor re-challenge of tumor-free mice (Studies 6 and 7); assay type: in vivo, mouse; settings: vs naive control mice
Description: The in vivo anti-tumor efficacy of the TLR4 agonist (CRX601) was assessed in the murine CT-26 colon carcinoma syngeneic solid tumor model as a monotherapy and in combination with a rate anti-mouse OX40 antibody clone OX86. Seven to eight week old female Balb/c mice (BALB/cAnNCrl, Charles River) were used in these studies. Murine CT-26 colon carcinoma cells (ATCC catalog number CRL-2638 lot#59227052) were cultured in RPMI growth medium supplemented with 10% fetal bovine serum (FBS) in a humidified 37° C. incubator with 5% CO2. CT-26 cells cultured in logarithmic growth were harvested from tissue culture flasks and centrifuged for 5 minutes at 450×g at 4° C. for ten minutes to pellet cells. The supernatant was discarded, and cells were washed in ice cold phosphate buffered saline (PBS) without calcium and magnesium and centrifuged again for 5 minutes at 450×g at 4° C. for ten minutes to pellet cells. The cells were resuspended in sterile RPMI media without FBS and adjusted to a cell concentration of 500,000 cells/ml. […] Tumor volume was calculated using the formula (0.52)×(Length)×(Width^2). In studies 6 and 7, tumor-free mice were re-challenged with CT-26 tumor cells as described above, on the opposite flank from the original inoculation site and tumor growth was monitored, as described above. […]

[4] = test system: OX40 expression on human PBMCs; assay: In vitro human PBMC assay, OX40 expression by flow cytometry; assay type: cell-based; settings: 24 hours, 0.01 μg/ml-1,000 μg/ml
Description: In vitro human peripheral blood mononuclear cell (PBMC) assay was performed to assess the effect of CRX601 on OX40 expression. Freshly isolated human PBMCs were checked for viability and were cultured in AIM-V serum free media at a density of two million cells per well in a 24-well non tissue culture treated plate. PBMCs were stimulated with a dose concentration (0.01 μg/ml-1,000 μg/ml, including a vehicle blank) of CRX-601 for 24 hours. By the end of incubation, cells were collected for flow cytometry assessment of OX40 expression.

[5] = test system: CT-26 colon carcinoma tumors; assay: In vivo anti-tumor efficacy in murine CT-26 colon carcinoma syngeneic solid tumor model (Example 5, Studies 1-4, 6, 7): tumor growth and survival; design: species or system mouse; settings: for tumor growth inhibition vs control Group 5: 12 days
Description: The in vivo anti-tumor efficacy of the TLR4 agonist (CRX601) was assessed in the murine CT-26 colon carcinoma syngeneic solid tumor model as a monotherapy and in combination with a rate anti-mouse OX40 antibody clone OX86. Seven to eight week old female Balb/c mice (BALB/cAnNCrl, Charles River) were used in these studies. Murine CT-26 colon carcinoma cells (ATCC catalog number CRL-2638 lot#59227052) were cultured in RPMI growth medium supplemented with 10% fetal bovine serum (FBS) in a humidified 37° C. incubator with 5% CO2. CT-26 cells cultured in logarithmic growth were harvested from tissue culture flasks and centrifuged for 5 minutes at 450×g at 4° C. […] to pellet cells. The supernatant was discarded, and cells were washed in ice cold phosphate buffered saline (PBS) without calcium and magnesium and centrifuged again for 5 minutes at 450×g at 4° C. […] to pellet cells. The cells were resuspended in sterile RPMI media without FBS and adjusted to a cell concentration of 500,000 cells/ml. 100 μl of the cell stock was implanted via subcutaneous injection into the right flank of each Balb/c mouse. After ten or eleven days when the average tumor size reached approximately 100 mm^3, mice were randomized into study cohorts according to tumor size and the first treatment dose was given. The TLR4 agonist (CRX601) or vehicle was dosed via a systemic intravenous or direct intratumoral injection as indicated. The CRX-601 vehicle used for intravenous and intratumoral dosing was […] where indicated. For CRX-601 liposomal intratumoral dosing, a DOPC/CHOL liposome prepared by GSK Lot #1783-157-B was used. The rat anti-mouse OX40 receptor antibody (clone OX86) (expressed and purified in-house from the rat hybridoma Grits ID 50776, BP232 2013) or Rat IgG1 isotype control antibody (BioXCell catalog # BE0088) was dosed via an intraperitoneal injection given twice per week for a total of six doses. Caliper measurements were taken three times per week to assess tumor growth, and mice with tumors <2,000 mm^3 were maintained on study from 30 up to approximately 115 days. Mice with tumors >2,000 mm^3 for 2 consecutive measurements or mice with tumors which formed open ulcers were removed from the study. Tumor volume was calculated using the formula (0.52)×(Length)×(Width^2). In studies 6 and 7, tumor-free mice were re-challenged with CT-26 tumor cells as described above, on the opposite flank from the original inoculation site and tumor growth was monitored, as described above. All studies were conducted in accordance with the GSK Policy on the Care, Welfare and Treatment of Laboratory Animals and were reviewed by the Institutional Animal Care and Use Committee at GSK.
For studies 1-4, to determine significance of tumor growth inhibition, tumor volumes at 11 (study 1), 15 (studies 2 and 3), or 19 (study 4) days after first dose were compared between the different treatment groups. Prior to the analysis, tumor volumes were natural log transformed due to the inequality of variance in the different treatment groups. ANOVA followed by pair-wise comparison was then carried out on the log transformed data. SAS 9.3 and R 3.0.2 analysis software was used. Kaplan-Meier (KM) method was carried out to estimate the survival probability of different treatment groups at a given time. The event for survival analysis was tumor volume of 2000 mm^3 or tumor ulceration, whichever came first. The exact time to cut-off volume was estimated by fitting a linear line between log tumor volume and day of two observations, the first observation that exceed the cut-off volume and the one observation that immediately preceded the cut-off volume. The median time to endpoint and its corresponding 95% confidence interval was calculated. Whether or not KM survival curves were statistically different between any two groups was then tested by log-rank test. […]

[6] = Study 1, 50 ug intratumoral, day 42
[7] = Study 2, 100 ug intravenous, day 32

**Q.** For CCCCCCCCCCC[C@H](CC(=O)N[C@H]1[C@H](OC[C@H](NC(=O)C[C@@H](CCCCCCCCCCC)OC(=O)CCCCCCCCC)C(=O)O)O[C@H](CO)[C@@H](OP(=O)(O)O)[C@@H]1OC(=O)C[C@@H](CCCCCCCCCCC)OC(=O)CCCCCCCCC)OC(=O)CCCCCCCCC [CRX-527], which “tumor growth inhibition over time” value [1] is on record?
**A.** The value was “inhibited tumor growth in a dose-dependent manner; also recorded: dose-dependent anti-tumor activity”.

**Q.** What about the survivability [1] of the same molecule?
**A.** Its survivability is “Dose dependence was also seen in the survivability”.

**Q.** Which results are given for CCCCCCCCCCC[C@H](CC(=O)N[C@H]1[C@H](OC[C@H](NC(=O)C[C@@H](CCCCCCCCCCC)OCCCCCCCCCC)C(=O)O)O[C@H](CO)[C@@H](OP(=O)(O)O)[C@@H]1OC(=O)C[C@@H](CCCCCCCCCCC)OCCCCCCCCCC)OCCCCCCCCCC [CRX-601]?
**A.** tumor growth inhibition over time [1]: inhibited tumor growth in a dose-dependent manner; also recorded: dose-dependent anti-tumor activity; survivability [1]: Dose dependence was also seen in the survivability; TNF alpha ([2]; 1 and 8 days post dosing): increase; IL-12p70 ([2]; only detectable at 8 days post dosing): increase; tumor growth after CT26 re-challenge of tumor-free mice ([3]; Study 6, re-challenge on day 68): persistent anti-tumor memory immunity; tumor growth after CT26 re-challenge of tumor-free mice ([3]; Study 7, re-challenge on day 80): persistent anti-tumor memory; OX40 expression on dendritic cells [4]: quick upregulation of OX40 receptor expression; OX40 expression on human CD4+ T cells [4]: quick upregulation of OX40 receptor expression; OX40 expression on monocytes [4]: quick upregulation of OX40 receptor expression; tumor-free mice among mice remaining on study ([5]; Study 1, 10 ug intratumoral, day 42): single mouse remaining in the 10 μg group was tumor-free; tumor growth inhibition vs vehicle ([5]; Study 1, 10 ug/mouse intratumoral twice per week x6, 11 days after initial dose): statistically significant; tumor volume of remaining mouse not tumor-free [5, 6]: 854.19 mm^3; tumor-free mice among mice remaining on study [5, 6]: Three of the four; increase in survival vs vehicle ([5]; Study 1, 50 ug intratumoral, day 42 post tumor cell inoculation): statistically significant; tumor growth inhibition vs vehicle ([5]; Study 1, 50 ug/mouse intratumoral single dose, 11 days after initial dose): statistically significant; anti-tumor activity (tumor growth inhibition over time) ([5]; Study 1, intratumoral 0.1, 1, 10 ug twice per week x6 or 50 ug single dose): dose-dependent anti-tumor activity; tumor volume of single remaining mouse ([5]; Study 2, 10 ug intravenous, day 32): 188.0 mm^3; tumor growth inhibition vs vehicle ([5]; Study 2, 10 ug/mouse intravenous twice per week x6, 15 days after initial dose): statistically significant; tumor volumes of remaining mice not tumor-free [5, 7]: 1500.49 mm^3 and 962.61 mm^3; tumor-free mice among mice remaining on study [5, 7]: One of the three; increase in survival vs vehicle ([5]; Study 2, 100 ug intravenous, day 32 post tumor cell inoculation): statistically significant increase; tumor growth inhibition vs vehicle ([5]; Study 2, 100 ug/mouse intravenous single dose, 15 days after initial dose): statistically significant; anti-tumor activity (tumor growth inhibition over time) ([5]; Study 2, intravenous 1, 10 ug twice per week x6 or 100 ug single dose): dose-dependent anti-tumor activity; tumor growth inhibition vs vehicle ([5]; Study 3, CRX-601 10 ug/mouse iv once per week x3, alone, 15 days after first dose): did not show statistically significant tumor growth inhibition; tumor growth inhibition vs vehicle ([5]; Study 3, CRX-601 25 ug/mouse iv once per week x3, alone, 15 days after first dose): did not show statistically significant tumor growth inhibition; anti-tumor activity (tumor volume over time) ([5]; Study 4, OX-86 25 ug/mouse twice per week x6, CRX-601 25 ug/mouse iv 1x/week x3, alone or combined): Anti-tumor activity was observed; mice remaining tumor-free at study end ([5]; Study 4, day 111, 25 ug/mouse each agent, monotherapy arms with Rat IgG1 or vehicle, groups of 10): two; tumor growth inhibition vs control Group 5 ([5]; Study 6, CRX-601 25 ug intratumoral 1x/week x3 + Rat IgG1 (Group 6), 0.5% glycerol/4% dextrose): did not show statistically significant tumor growth inhibition; tumor growth inhibition vs control Group 1 ([5]; Study 6, CRX-601 25 ug iv 1x/week x3 + Rat IgG1 (Group 2), 0.5% glycerol/4% dextrose, 12 days after first dose): did not show statistically significant tumor growth inhibition; mice showing full tumor regressions ([5]; Study 7, CRX601 25 ug IV alone (Group 2) or with OX86 IP (Group 4), day 80): 5 out of 10; increase in survival vs control Group 1 ([5]; Study 7, CRX601 monotherapy IV (Group 2), 80 days after first dose): statistically significant; increase in survival vs control Group 5 ([5]; Study 7, CRX601 monotherapy intratumoral, DOPC/CHOL liposome formulation (Group 7), 80 days): statistically significant; tumor growth inhibition vs control Group 5 ([5]; Study 7, CRX-601 25 ug intratumoral, DOPC/CHOL liposomal formulation + Rat IgG1 (Group 7)): statistically significant; tumor growth inhibition vs control Group 1 ([5]; Study 7, CRX-601 25 ug iv (0.5% Glycerol/4% dextrose) + Rat IgG1 (Group 2), 12 days after initial dose): statistically significant; mice fully regressed and tumor-free ([5]; Study 7, intratumoral liposomal arms: Group 8 combination, Group 6 OX86, Group 7 CRX601, day 80, groups of 10): 2 mice
